From US6166072A, “Amino acid derivatives” (Allelix Neuroscience, Inc., priority 1999, dated 2000) come the findings set out here.

Each structure is given as a SMILES string.

The first assay deals with T1, GlyT-1C (Homo sapiens, UniProt P48067).
T1 construct: [3H]glycine uptake
T1 sequence (P48067 1-706): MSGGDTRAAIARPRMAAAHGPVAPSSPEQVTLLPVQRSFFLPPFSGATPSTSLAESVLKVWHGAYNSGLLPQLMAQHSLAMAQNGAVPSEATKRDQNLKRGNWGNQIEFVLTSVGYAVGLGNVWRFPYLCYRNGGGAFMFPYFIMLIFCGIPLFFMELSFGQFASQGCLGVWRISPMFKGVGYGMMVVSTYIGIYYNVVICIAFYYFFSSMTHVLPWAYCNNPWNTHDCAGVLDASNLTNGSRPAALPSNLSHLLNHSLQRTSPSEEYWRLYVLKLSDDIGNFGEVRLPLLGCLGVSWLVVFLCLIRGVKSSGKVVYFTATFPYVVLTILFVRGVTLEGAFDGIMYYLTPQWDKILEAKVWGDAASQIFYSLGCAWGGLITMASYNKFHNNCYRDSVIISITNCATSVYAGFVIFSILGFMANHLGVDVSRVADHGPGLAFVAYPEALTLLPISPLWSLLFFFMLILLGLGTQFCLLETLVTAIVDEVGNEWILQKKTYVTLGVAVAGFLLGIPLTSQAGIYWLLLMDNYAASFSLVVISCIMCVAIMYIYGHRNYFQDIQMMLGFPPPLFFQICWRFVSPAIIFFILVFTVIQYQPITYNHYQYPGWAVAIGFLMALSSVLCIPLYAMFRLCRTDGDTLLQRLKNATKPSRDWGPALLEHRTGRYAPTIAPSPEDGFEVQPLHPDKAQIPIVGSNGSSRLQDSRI
The experiment in a line: Glycine uptake by cells transiently transfected with GlyT-1C. Type of assay: cell-based. Conditions: GlyT-1 and GlyT-2 transfected cells. Here is the method: (§1) This example illustrates a method for the measurement of glycine uptake by transfected cultured cells.
(§2) Cells transiently transfected with GlyT-1C (see Kim, et al., Molecular Pharmacology, 45, 1994:608-617) and human GlyT-2 (the homolog of the rat GlyT-2 described by Liu et al., J. Biological Chemistry, 268, 1993.22802-22808) were washed three times with HEPES buffered saline (HBS). The cells were then incubated 10 minutes at 37° C., after which a solution containing 50 nM [^3 H]glycine (17.5 Ci/mmol) and either (a) no potential competitor, (b) […] nonradioactive glycine or (c) a concentration of a candidate drug. A range of concentrations of the candidate drug was used to generate data for calculating the concentration resulting in 50% of the effect (e.g., the IC50 's which are the concentration of drug inhibiting glycine uptake by 50%). The cells were then incubated another 10 minutes at 37° C., after which the cells were aspirated and washed three times with ice-cold HBS. The cells were harvested, scintillant was added to the cells, the cells were shaken for 30 minutes, and the radioactivity in the cells was counted using a scintillation counter. Data were compared between the same cells contacted and not contacted by the candidate agent, and between cells having GlyT-1 activity versus cells having GlyT-2 activity, depending on the assay being conducted.
Take `CCCc1ccc(C(SCC(N)C(=O)O)c2ccc(F)cc2F)cc1` (racemic) [S-(2,4-Difluoro-4'-^npropyldiphenyl)methyl-D,L-cysteine]: the “mixed GlyT-1/GlyT-2 activity” value is listed as “mixed GlyT-1/GlyT-2 activity”.

`CCc1ccc(C(SCC(N)C(=O)O)c2cccc(F)c2)cc1CC` (racemic) [S-(3,4-Diethyl-3'-fluorodiphenyl)methyl-D,L-cysteine]: the “mixed GlyT-1/GlyT-2 activity” value is recorded as “mixed GlyT-1/GlyT-2 activity”.

In the case of `CCc1ccc(C(SCC(N)C(=O)O)c2cccc(C(F)(F)F)c2)cc1CC` (racemic) [S-(3,4-Diethyl-3'-trifluoromethyidiphenyl)methyl-D,L-cysteine], the “mixed GlyT-1/GlyT-2 activity” value was “mixed GlyT-1/GlyT-2 activity”.

Consider `CCc1ccc(C(SC(C)(C)C(N)C(=O)O)c2ccc(F)cc2)cc1CC` (racemic) [S-(3,4-Diethyl-4-fluorodiphenyl)methyl-D,L-dimethylcysteine], for which the “mixed GlyT-1/GlyT-2 activity” value was “mixed GlyT-1/GlyT-2 activity”.

Consider `CC(C)(C)c1ccc(C(SCCC(N)C(=O)O)c2ccccc2)cc1` (racemic) [S-(4'-Butyidiphenyl)methyl-D,L-homocysteine], for which the “mixed GlyT-1/GlyT-2 activity” value is recorded as “mixed GlyT-1/GlyT-2 activity”.

Another assay deals with T2, human GlyT-2 (Homo sapiens, UniProt Q9Y345).
T2 construct: [3H]glycine uptake
T2 sequence (Q9Y345 1-797): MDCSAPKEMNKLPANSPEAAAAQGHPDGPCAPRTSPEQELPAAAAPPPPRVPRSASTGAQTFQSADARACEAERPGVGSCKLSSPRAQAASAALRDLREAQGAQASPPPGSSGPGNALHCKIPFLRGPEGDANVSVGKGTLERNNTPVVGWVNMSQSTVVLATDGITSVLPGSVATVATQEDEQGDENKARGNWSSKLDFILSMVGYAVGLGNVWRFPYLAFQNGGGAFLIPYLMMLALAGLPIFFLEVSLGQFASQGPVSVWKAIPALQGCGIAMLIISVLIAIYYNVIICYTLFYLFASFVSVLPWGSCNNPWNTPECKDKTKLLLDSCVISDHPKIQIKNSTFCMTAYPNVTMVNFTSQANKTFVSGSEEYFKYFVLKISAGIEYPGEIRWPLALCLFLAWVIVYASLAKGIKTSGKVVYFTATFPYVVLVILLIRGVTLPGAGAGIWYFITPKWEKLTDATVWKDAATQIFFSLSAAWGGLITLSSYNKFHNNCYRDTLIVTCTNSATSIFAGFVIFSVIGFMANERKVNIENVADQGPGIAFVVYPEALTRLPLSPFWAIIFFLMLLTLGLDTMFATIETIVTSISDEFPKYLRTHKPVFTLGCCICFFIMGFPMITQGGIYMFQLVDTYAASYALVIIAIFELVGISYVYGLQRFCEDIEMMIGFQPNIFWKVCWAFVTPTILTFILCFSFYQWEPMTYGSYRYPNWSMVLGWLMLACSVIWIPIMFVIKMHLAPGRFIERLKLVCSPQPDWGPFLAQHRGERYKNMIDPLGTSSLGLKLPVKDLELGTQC
The assay can be described thus: Glycine uptake by cells transiently transfected with human GlyT-2. Type of assay: cell-based. Conditions: GlyT-2 versus GlyT-1 transfected cells. How it is done:
as §1, §2
As for `CCc1ccc(C(SCC(N)C(=O)O)c2ccc(F)cc2F)cc1CC` (racemic) [S-(3,4-Diethyl-2',4'-difluorodiphenyl)methyl-D,L-cysteine], the “selectivity for inhibition of glycine transport via GlyT-2 versus GlyT-1” value (shortened to “selectivity for inhibition”) was “selectivity for the inhibition of glycine transport via GlyT-2 versus GlyT-1”.

With `CCc1ccc(C(SC(C)(C)C(N)C(=O)O)c2ccccc2F)cc1CC` (racemic) [S-(3,4-Diethyl-2'-fluorodiphenyl)methyl-D,L-dimethylcysteine], the “selectivity for inhibition” value is listed as “selectivity for the inhibition of glycine transport via GlyT-2 versus GlyT-1”.

Regarding `CCc1ccc(C(SCC(N)C(=O)O)c2ccc([N+](=O)[O-])cc2)cc1CC` (racemic) [S-(3,4-Diethyl-4'-nitrodiphenyl)methyl-D,L-cysteine], the “selectivity for inhibition” value was “selectivity for the inhibition of glycine transport via GlyT-2 versus GlyT-1”.

Turning to `Cc1ccc(C(SCC(N)C(=O)O)c2ccc(C)cc2)cc1` (racemic) [S-(4,4'-Dimethyldiphenyl)methyl-D,L-cysteine], the “selectivity for inhibition” value was “selectivity for the inhibition of glycine transport via GlyT-2 versus GlyT-1”.

For the compound `NC(CSC(c1ccc(F)cc1)c1ccccc1-c1ccccc1)C(=O)O` (racemic) [S-(4-Fluoro-2'-phenyldiphenyl)methyl-D,L-cysteine], the “selectivity for inhibition” value was “selectivity for the inhibition of glycine transport via GlyT-2 versus GlyT-1”.

In the case of `Cc1ccc(C(SCC(N)C(=O)O)c2ccc(C)s2)s1` (racemic) [S-[α,α-Bis(5-methyl-2-thienyl)]methyl-D,L-cysteine], the “selectivity for inhibition” value is listed as “selectivity for the inhibition of glycine transport via GlyT-2 versus GlyT-1”.

Turning to `NC(CSC(c1ccc2c(c1)CCCC2)c1ccc(F)cc1F)C(=O)O` (racemic) [S-[α-(5,6,7,8-Tetrahydronaphth-2-yl)-α-(2,4-difluorophenyl)]methyl-D,L-cysteine], the “selectivity for inhibition” value is “selectivity for the inhibition of glycine transport via GlyT-2 versus GlyT-1”.
